# From patent US20100075965A1, “PI3 KINASE INHIBITORS AND METHODS OF THEIR USE” (Novartis AG, priority 2006, published 2010)
# Tested on: A2780 cells
# Assay: Viability assay in A2780 (Cell Titer Glo)
# Format: cell-based, human
# Conditions: A2780 cells; read-out: A2780 Cell prolif. EC50
# Experimental: Cell viability was assessed with Cell Titer Glo assay, Promega. Cells were seeded in TC treated 96-well plates at a density of 1,000 (A2780 cells) per well in DMEM with 10% FBS, 1% Sodium Pyruvate, and 1% Penicillin Streptomycin for a minimum of 2 hrs prior to addition of compound. Test compounds were serially diluted (3 fold) in DMSO to 500× the final concentration. For each concentration of test compound, 2 μL (500×) aliquots of compound or 100% DMSO (control) were diluted in 500 μL of culture medium to 2× final concentration then diluted 1× on the cells. Cells were incubated for 72 hrs at 37° C., 5% CO2. After which Cell Titer Glo is added to determine viable cells, the assay was performed according to the manufacturer's instruction (Promega Corporation, Madison, Wis. USA). Each experimental condition was performed in duplicate. Raw data was imported in Abase and EC50s calculated with XL-fit data analysis software and are shown in Tables 1 and 2 in the column labeled “A2780 Cell prolif. EC50”.
row,Compound,EC50 [µM]
1,"CC(C)(C)OC(=O)N1CCC1C(=O)Nc1cn2nc(-c3cnc(N)c(C(F)(F)F)c3)ccc2n1 (stereo not shown) [Example 279, tert-butyl 2-(6-(6-amino-5-(trifluoromethyl)pyridin-3-yl)imidazo[1,2-b]pyridazin-2-ylcarbamoyl) azetidine-1-carboxylate]",< 25

# Same assay, conditions: Homo sapiens; A2780 cells; read-out: A2780 Cell prolif. EC50
row,Compound,EC50 [µM]
1,"Nc1ncc(-c2ccc3nc(NC(=O)[C@H]4CCCN4)cn3n2)cc1C(F)(F)F [Example 178, (R)-N-(6-(6-amino-5-(trifluoromethyl)pyridin-3-yl)imidazo[1,2-b]pyridazin-2-yl)pyrrolidine-2-carboxamide]",< 25
2,"CC(=O)Nc1cn2nc(-c3cnc(N)c(OCC(F)(F)F)n3)ccc2n1 [Example 284, N-(6-(5-amino-6-(2,2,2-trifluoroethoxy)pyrazin-2-yl)imidazo[1,2-b]pyridazin-2-yl)acetamide]",< 10
3,"CCN1CCC(Oc2nc(-c3ccc4nc(NC(C)=O)cn4c3)cnc2N)CC1 [Example 286, N-(6-(5-amino-6-(1-ethylpiperidin-4-yloxy)pyrazin-2-yl)imidazo[1,2-a]pyridin-2-yl)acetamide]",< 10
4,"CC(=O)Nc1cn2cc(-c3cnc(N)c(OC4CCNCC4)n3)ccc2n1 [Example 280, N-(6-(5-amino-6-(piperidin-4-yloxy)pyrazin-2-yl)imidazo[1,2-a]pyridin-2-yl)acetamide]",< 25
5,"COCCOc1nc(-c2ccc3nc(NC(C)=O)cn3n2)cnc1N [Example 287, N-(6-(5-amino-6-(2-methoxyethoxy)pyrazin-2-yl)imidazo[1,2-b]pyridazin-2-yl)acetamide]",< 10

# More lines, now with the values ahead:
row,EC50 [µM],Compound
1,< 25,"C/C=C\c1c(NC(C)=O)nc2ccc(-c3cnc(N)c(C(F)(F)F)c3)cn12 [Example 156, (Z)-N-(6-(6-amino-5-(trifluoromethyl)pyridin-3-yl)-3-(prop-1-enyl)imidazo [1,2-a]pyridin-2-yl)acetamide]"
2,< 25,"CC(=O)N1CCCC[C@H]1C(=O)Nc1cn2cc(-c3cnc(N)c(C(F)(F)F)c3)ccc2n1 [Example 282, (S)-1-acetyl-N-(6-(6-amino-5-(trifluoromethyl)pyridin-3-yl)imidazo[1,2-a]pyridin-2-yl)piperidine-2-carboxamide]"
3,< 25,"CC(C)C(=O)Nc1cn2cc(-c3cnc(N)c(C(F)(F)F)c3)ccc2n1 [Example 278, N-(6-(6-amino-5-(trifluoromethyl)pyridin-3-yl)imidazo[1,2-a]pyridin-2-yl)isobutyramide]"
4,< 25,"CNC(=O)[C@@H]1CCCN1C(=O)Nc1cn2cc(-c3cnc(N)c(C(F)(F)F)c3)ccc2n1 [Example 281, (S)-N1-(6-(6-amino-5-(trifluoromethyl)pyridin-3-yl)imidazo[1,2-a]pyridin-2-yl)-N2-methylpyrrolidine-1,2-dicarboxamide]"
5,< 10,"NC(=O)[C@@H]1CCCN1C(=O)Nc1cn2cc(-c3cnc(N)c(C(F)(F)F)c3)ccc2n1 [Example 285, (S)-N1-(6-(6-amino-5-(trifluoromethyl)pyridin-3-yl)imidazo[1,2-a]pyridin-2-yl)pyrrolidine-1,2-dicarboxamide]"

# Biological target: PI3 K Alpha (Homo sapiens, UniProt P42336)
# Assay: PI3 kinase phosphorylation assays (homogenous solution phase, one step solid phase, ATP depletion/KinaseGlo)
# Format: biochemical
# Conditions: ATP depletion assay; read-out: PI3 K Alpha IC50
# Experimental: Compounds to be tested are dissolved in DMSO and directly distributed into 384-well flashplates at 1.25 μL per well. To start the reaction, 20 μL of 6 nM PI3 kinase are added into each well followed by 20 μL of 400 nM ATP containing a trace of radiolabeled ATP and 900 nM 1-alpha-phosphatidylinositol (PI). The plates are briefly centrifuged to remove any air gap. The reaction is performed for 15 minutes and then stopped by the addition of 20 μL of 100 mM EDTA. The stopped reaction is incubated overnight at RT to allow the lipid substrate to bind by hydrophobic interaction to the surface of the flashplate. The liquid in the wells is then washed away, and the labeled substrate is detected with scintillation counting.
# This method is similar to Assay 1 except that the lipid substrate (1-alpha-phosphatidylinositol (PI)) is first dissolved in a coating buffer and incubated on flashplate at room temperature overnight to allow the lipid substrate to bind by hydrophobic interaction to the surface of the flashplate. Unbound substrate is then washed away. On the day of assay, 20 μL of 6 nM PI3 kinase are added into each well followed by 20 μL of 400 nM ATP containing trace of radiolabeled ATP. Compounds are added together with enzyme and ATP to the lipid-coated plates. The plates are briefly centrifuged to remove any air gap. The reaction is performed for two to three hours. The reaction is stopped by addition of 20 μL of 100 mM EDTA or by immediate plate washing. Phosphorylated lipid substrate is detected by scintillation counting.
# Compounds to be tested are dissolved in DMSO and directly distributed into a black 384-well plate at 1.25 μL per well. To start the reaction, 25 μL of 10 nM PI3 kinase and 5 μg/mL 1-alpha-phosphatidylinositol (PI) are added into each well followed by 25 μL of 2 μM ATP. The reaction is performed until approx 50% of the ATP is depleted, and then stopped by the addition of 25 μL of KinaseGlo solution. The stopped reaction is incubated for 5 minutes and the remaining ATP is then detected via luminescence.
# Chain of PI3 K Alpha (P42336 whole entry): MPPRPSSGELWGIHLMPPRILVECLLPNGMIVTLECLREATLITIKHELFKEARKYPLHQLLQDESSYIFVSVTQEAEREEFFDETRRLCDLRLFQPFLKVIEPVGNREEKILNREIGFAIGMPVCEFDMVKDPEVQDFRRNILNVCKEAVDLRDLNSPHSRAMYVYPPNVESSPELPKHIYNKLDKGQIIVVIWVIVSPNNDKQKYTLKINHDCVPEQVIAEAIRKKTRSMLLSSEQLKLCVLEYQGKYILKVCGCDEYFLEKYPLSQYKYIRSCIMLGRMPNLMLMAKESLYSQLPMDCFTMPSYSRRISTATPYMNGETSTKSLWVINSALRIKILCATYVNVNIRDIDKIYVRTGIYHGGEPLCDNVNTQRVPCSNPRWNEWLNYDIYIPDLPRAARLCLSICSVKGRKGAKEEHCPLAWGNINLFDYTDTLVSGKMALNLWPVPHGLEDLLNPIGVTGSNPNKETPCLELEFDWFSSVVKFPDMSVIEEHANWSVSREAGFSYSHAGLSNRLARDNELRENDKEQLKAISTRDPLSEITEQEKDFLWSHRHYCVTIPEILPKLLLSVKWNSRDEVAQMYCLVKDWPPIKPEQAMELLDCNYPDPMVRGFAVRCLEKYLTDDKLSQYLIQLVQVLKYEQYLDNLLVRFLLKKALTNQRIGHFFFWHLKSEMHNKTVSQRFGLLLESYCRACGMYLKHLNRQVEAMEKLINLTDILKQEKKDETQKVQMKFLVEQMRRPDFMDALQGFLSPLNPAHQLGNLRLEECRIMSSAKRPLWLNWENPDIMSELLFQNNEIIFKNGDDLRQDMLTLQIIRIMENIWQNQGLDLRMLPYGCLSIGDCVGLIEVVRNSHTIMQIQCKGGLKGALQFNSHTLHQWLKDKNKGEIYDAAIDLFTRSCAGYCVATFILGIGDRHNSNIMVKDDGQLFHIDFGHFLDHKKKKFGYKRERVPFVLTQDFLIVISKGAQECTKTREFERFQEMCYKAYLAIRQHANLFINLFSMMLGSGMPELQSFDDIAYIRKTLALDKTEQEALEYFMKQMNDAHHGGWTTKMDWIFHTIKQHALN
# Chain of PI3 K Alpha (P27986 whole entry partner): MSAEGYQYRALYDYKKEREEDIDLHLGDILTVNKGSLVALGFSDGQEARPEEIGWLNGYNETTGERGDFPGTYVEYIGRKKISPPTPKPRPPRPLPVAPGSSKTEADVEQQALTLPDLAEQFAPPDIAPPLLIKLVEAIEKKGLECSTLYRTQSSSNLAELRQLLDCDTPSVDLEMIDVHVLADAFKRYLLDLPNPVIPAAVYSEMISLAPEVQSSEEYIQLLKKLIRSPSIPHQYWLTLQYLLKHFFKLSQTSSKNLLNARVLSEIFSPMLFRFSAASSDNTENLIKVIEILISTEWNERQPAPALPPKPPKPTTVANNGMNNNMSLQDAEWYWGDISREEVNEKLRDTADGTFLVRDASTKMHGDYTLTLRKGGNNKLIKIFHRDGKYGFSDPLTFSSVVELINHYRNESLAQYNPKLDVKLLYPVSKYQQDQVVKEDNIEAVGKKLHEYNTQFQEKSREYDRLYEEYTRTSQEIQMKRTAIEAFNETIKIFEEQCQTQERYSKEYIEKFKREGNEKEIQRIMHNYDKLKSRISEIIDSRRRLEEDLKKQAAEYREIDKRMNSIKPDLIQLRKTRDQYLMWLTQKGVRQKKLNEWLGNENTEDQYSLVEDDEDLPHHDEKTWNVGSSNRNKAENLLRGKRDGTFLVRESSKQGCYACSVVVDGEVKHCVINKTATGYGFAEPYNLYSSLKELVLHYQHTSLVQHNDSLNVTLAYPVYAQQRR
row,Compound,IC50 [µM]
1,"Nc1cc(C(=O)Nc2nc3ccc(-c4cnc(N)c(C(F)(F)F)c4)cc3s2)ccn1 [Example 2-36, 2-amino-N-(6-(6-amino-5-(trifluoromethyl)pyridin-3-yl)benzo[d]thiazol-2-yl)isonicotinamide]",< 1
2,"CC(=O)Nc1nc2ccc(-c3ccc(NC4CCOCC4)nc3)cc2s1 [Example 2-17, N-{6-[6-(Tetrahydro-pyran-4-ylamino)-pyridin-3-yl]-benzothiazol-2-yl}-acetamide]",< 1

# Same assay, conditions: read-out: PI3K Alpha IC50
row,Compound,IC50 [µM]
1,"Nc1ncc(-c2ccc3nc(NC(=O)[C@H]4CCCN4)cn3n2)cc1C(F)(F)F [Example 178, (R)-N-(6-(6-amino-5-(trifluoromethyl)pyridin-3-yl)imidazo[1,2-b]pyridazin-2-yl)pyrrolidine-2-carboxamide]",< 1
2,"C/C=C\c1c(NC(C)=O)nc2ccc(-c3cnc(N)c(C(F)(F)F)c3)cn12 [Example 156, (Z)-N-(6-(6-amino-5-(trifluoromethyl)pyridin-3-yl)-3-(prop-1-enyl)imidazo [1,2-a]pyridin-2-yl)acetamide]",< 1
3,"CC(=O)Nc1cn2cc(-c3cnc(N)c(Oc4cccc(F)c4)n3)cc(F)c2n1 [Example 261, N-(6-(5-amino-6-(3-fluorophenoxy)pyrazin-2-yl)-8-fluoroimidazo [1,2-a]pyridin-2-yl)acetamide]",< 1
